Measured values as given in patent US7049321B2, “Methods and pharmaceutical compositions for treatment of central and peripheral nervous system disorders and compounds useful therefor” (Israel Institute for Biological Research, priority 2002, dated 2006).

Key:
[1] = system: rat primary hippocampal cell cultures; experiment: APPs secretion in rat primary hippocampal cell cultures; format: cell-based; settings: 100 μm; culture not given
[2] = Pharmacokinetic study in dogs; format: in vivo; settings: beagle, dog, plasma
From the text: The results of the PK profile of AF292 in rats and Beagle dogs (overnight fasting; drug administered in water solution; gavage) are listed in Table 1.

M1 mAChR = target: T1, M1 mAChR (Homo sapiens, UniProt P11229); experiment: Arachidonic acid (AA) release, M1; format: cell-based
T1 construct: expressed in transfected cells
T1 sequence (P11229 whole entry): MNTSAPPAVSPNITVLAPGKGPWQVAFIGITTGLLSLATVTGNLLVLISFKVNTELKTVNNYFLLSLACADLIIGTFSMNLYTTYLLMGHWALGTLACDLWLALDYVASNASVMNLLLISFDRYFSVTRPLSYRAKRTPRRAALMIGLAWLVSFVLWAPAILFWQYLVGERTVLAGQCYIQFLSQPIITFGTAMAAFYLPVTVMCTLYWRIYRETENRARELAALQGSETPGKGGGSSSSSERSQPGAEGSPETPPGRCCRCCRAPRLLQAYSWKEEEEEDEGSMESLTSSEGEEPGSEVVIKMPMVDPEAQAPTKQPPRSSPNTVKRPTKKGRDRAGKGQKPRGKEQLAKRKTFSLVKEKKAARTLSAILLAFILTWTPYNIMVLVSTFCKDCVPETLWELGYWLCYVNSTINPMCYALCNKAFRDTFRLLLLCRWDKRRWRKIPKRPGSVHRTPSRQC

aged rats = experiment: Morris water maze in aged rats; format: in vivo, Sprague-Dawley rats; settings: for Reversal learning: AF267B 1 mg/kg, AF292 1 and 0.5 mg/kg, po
From the text: Old (22–24 months old) and young (three months old) Sprague-Dawley rats had been tested in the MWM.

[3] = system: mice with closed head injury; experiment: Closed head injury in mice, neurological severity score; format: in vivo; settings: for Balance test (beam walk): 80% in control
Protocol: Closed head injury (CHI) was induced in mice as described in Chen et al, J Neurotrauma, 15: 231–237, 1998. Neurological severity scores (NSS) were assessed using a battery of 10 parameters (10=worst outcome, 0=normal function). The compounds tested (1 mg compound/kg body weight) vs. placebo-treated animals were injected ip 5 min after CHI vs. placebo-treated animals. Treated mice were evaluated at 1 h, to determine the severity of injury, and at 24 and 48 h to determine recovery. The NSS was as follows: 1. […] 2.

[4] = Metabolic stability, monkey liver microsomes; format: in vitro ADME; settings: read-out: Metabolic Stability T1/2
Protocol: (§1) The metabolic stability of AF292 was evaluated by monitoring its disappearance while incubated with rat, […], monkey, and human hepatic microsomes. Testosterone, and propranolol were run as assay controls.

[5] = target: Human serum albumin (HSA) (Homo sapiens, UniProt P02768); experiment: Protein binding, human serum albumin; format: in vitro ADME; settings: 10 μM
Human serum albumin (HSA), sequence (P02768 25-609): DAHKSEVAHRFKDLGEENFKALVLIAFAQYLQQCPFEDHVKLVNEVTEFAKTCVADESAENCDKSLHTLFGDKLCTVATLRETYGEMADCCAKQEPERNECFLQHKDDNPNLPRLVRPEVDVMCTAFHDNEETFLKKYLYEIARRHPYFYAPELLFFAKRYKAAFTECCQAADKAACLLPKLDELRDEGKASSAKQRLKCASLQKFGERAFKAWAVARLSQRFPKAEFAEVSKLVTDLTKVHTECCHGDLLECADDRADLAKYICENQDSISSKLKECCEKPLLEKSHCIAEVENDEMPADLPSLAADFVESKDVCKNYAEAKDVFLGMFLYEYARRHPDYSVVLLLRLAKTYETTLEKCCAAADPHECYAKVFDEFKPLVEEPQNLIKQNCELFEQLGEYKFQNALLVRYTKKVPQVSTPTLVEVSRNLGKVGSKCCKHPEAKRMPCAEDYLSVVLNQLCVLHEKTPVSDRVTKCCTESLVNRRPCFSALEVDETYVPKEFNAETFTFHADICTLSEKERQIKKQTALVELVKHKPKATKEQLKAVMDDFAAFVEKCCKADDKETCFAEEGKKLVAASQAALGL
Protocol: Protein binding studies were carried out in human plasma, α1-glycoprotein, human serum albumin (HSA), and Dulbecco's Phosphate Buffered Saline (PBS). AF292 was added to a final concentration of 10 μM. […] (μM) and in human […] (AGP), (see Table 1).

[6] = CNS safety: general observation and Irwin test in rats; format: in vivo, rat
Protocol: AF292 was evaluated in rodents for possible effects on general behavior and other CNS related pharmacological effects. […] No behavioral or physical signs were observed 24 hours after administration. All rats were retained for 14 days, and throughout this retention period all rats appeared normal.

[7] = Metabolic stability, human liver microsomes; format: in vitro ADME; settings: read-out: Metabolic Stability T1/2
Protocol: as §1

[8] = Plasma levels of AF267B and AF292 in dogs after AF267B administration (toxicokinetic, LC-MS); format: in vivo, Beagle dogs; settings: for AUC(0-t) / Cmax / Tmax / half-life / AUC(0-inf) / MRT / MRT at 13 weeks: beagle, plasma, po
From the text: Internal Standard (AF261): 2-Methyl-8-methyl-1-thia-4,8-diaza-spiro[4.5]decan-3-one; MW 200. The analytical plasma samples originate from the in-life part of this study.

naive rats = experiment: Social memory (olfactory recognition) in naive rats; format: in vivo, Wistar rats; settings: 0.5, 1 and 5 mg/kg, p.o.
Protocol: 12 Male Wistar rats, 400–530 gr (4–5 months old) were used. Rats were housed individually 14 days before testing. Juvenile Wistar rats 40–50 gr (at arrival) were kept in groups of 6 and served as social stimuli for the adult rats. Animals were kept at 21° C.±1, with an inverse light-dark cycle (light on from 2:00 P.M. to 2:00 A.M.). The sessions were conducted 7 hr into the dark part of the light/dark cycle, under red illumination.
Adult rats were placed in a dim illumination room 1.5 h before the beginning of the social test. All juveniles were isolated in cages for 30 min prior to the beginning of the experiment. At the beginning of testing, an unfamiliar juvenile rat was placed in the home cage of an adult rat for 5 min. The time spent by the adult rat in investigating the juvenile rat was recorded. The adult rat was then immediately (1–2 min) treated with vehicle or test compound. Two hours later, the same juvenile was presented to the same adult rat for another 5 min period, a time when normally the stimulus juvenile is no longer identified (i.e., the adult rat investigates the juvenile for the same amount of time as during the first presentation). […]
Time spent in social investigation of stimulus juvenile rat was measured (in sec) and then expressed for each animal as the ratio of the second exposure to the first exposure (Ratio of Investigation Duration (RID)). […]

[9] = oral, Dogs, extrapolated for 5 mg/kg
[10] = 1 mg/kg ip 5 min after CHI, 1 h
[11] = both sexes, dog, 6 mg/kg, read-out: plasma half life
[12] = female, dog, 6 mg/kg, F (1x), AF267B 1.5, 3, 6 mg/kg p.o. single
[13] = female, dog, 6 mg/kg, F(13w), AF267B 1.5, 3, 6 mg/kg p.o.
[14] = male, dog, 6 mg/kg, M (1x), AF267B 1.5, 3, 6 mg/kg p.o. single
[15] = male, dog, 6 mg/kg, M(13w), AF267B 1.5, 3, 6 mg/kg p.o.
[16] = male, dog, read-out: Elimination half life, Mean T1/2

In the case of CC[C@@H]1SC2(CCN(C)CC2)NC1=O [AF267B, (S)-2-ethyl-8-methyl-1-thia-4,8-diaza-spiro[4.5]decan-3-one], the “APPs secretion, fold over control (agonists vs CCh)” value [1] is reported as 2.8 fold, the AUC(0-inf) [2, 9] is reported as 2760 ng·h/mL and the Cmax [2, 9] is reported as 1080 ng/mL. It also gave an AUC(0-inf) ([2]; po, Dogs., 1 mg/kg) of 552 ng·h/mL, a Cmax ([2]; po, Dogs., 1 mg/kg) of 257 ng/mL and an MRT ([2]; po, Dogs., 1 mg/kg) of 1.96 h. The Tmax ([2]; po, Dogs., 1 mg/kg) was 0.58 to 0.75 h, the half-life ([2]; po, Dogs., 1 mg/kg) was 1.33 h and the “AA release vs. CCh, M1 mAChR” value (M1 mAChR) was 100%. The Learning (aged rats; 1 mg/kg) was “tendency for improvement”, the Reversal learning (aged rats) was “improved significantly the reversal learning” and the Swimming ability (aged rats; rat, in vivo) was “no significant effect on the swimming ability”. For the same compound, the NSS [3, 10] was 7.89+/−0.26, the NSS ([3]; 1 mg/kg ip, 24 h) was 3.67+/−0.24 and the NSS ([3]; 1 mg/kg ip, 48 h) was 2.89+/−0.26. The “Balance test (beam walk)” value ([3]; 24 h (3 cm)) was 22%, the “Balance test (beam walk)” value ([3]; 48 h (2 cm)) was 33% and the half-life [4] was 0.45 h. The “Protein Binding” value [5] was “HSA = 32%”, the “IRWIN TEST, duration of signs” value ([6]; 100 mg/kg) was “duration 3–6 hrs.)” and the “IRWIN TEST, onset of signs” value ([6]; 100 mg/kg) was 0.5 h. The “IRWIN TEST, signs” value ([6]; 100 mg/kg p.o.) was 100 mg/kg: abnormalities of carriage, and apathy, decreased corneal reflex, diarrhea, and reduced grooming, increased urination, and salivation, lacrimation & and chromodacryorrhea, reduced locomotor and activity, passivity, decreased respiration, and reduced startle response, the “IRWIN TEST, gross behavior & physiological state” value ([6]; 1 & 10 mg/kg, p.o.) was 1 & 10 no effect on gross behavior and the “Chromodacryorrhea, dose” value ([6]; p.o.) was “Chromodacryorrhea: 100 mg/kg, p.o”. For the same compound, the “Convulsion, dose” value ([6]; p.o.) was “Convulsion: 50 mg/kg, p.o”, the “Gnawing, dose” value ([6]; p.o.) was “Gnawing; 50 mg/kg, p.o” and the “Hypothermia, dose” value ([6]; p.o.) was “Hypothermia: 50 mg/kg, p.o”. For the same compound, the “Lacrimation, dose” value ([6]; p.o.) was “Lacrimation: 50 mg/kg, p.o”, the “Mydriasis, dose” value ([6]; p.o.) was “Mydriasis: 25 mg/kg, p.o” and the “Salivation, dose” value ([6]; p.o.) was “Salivation: 40 mg/kg, p.o”. The “Sedation, dose” value ([6]; p.o.) was “Sedation: 100 mg/kg, p.o”, the “Dose at which salivation and lacrimation begin” value ([6]; po, first hour) was “about 40 mg/kg” and the half-life [7] was greater than 1.67 h. The AUC(0-t) ([8]; both sexes, dog) was 712 to 3950 ng·h/mL, the Cmax ([8]; both sexes, dog) was 162 to 1350 ng/mL and the Tmax ([8]; both sexes, dog) was 1.5 to 3 h. The half-life [8, 11] was 1 to 2 h, the AUC(0-inf) [8, 12] was 985 to 3180 ng·h/mL and the AUC(0-inf) [8, 13] was 1030 to 4160 ng·h/mL. It also gave an MRT ([8]; female, dog, F (1x)) of 4.7 to 5.3 h, an MRT at 13 weeks ([8]; female, dog, F(13w)) of 3.6 to 5.2 h and a half-life ([8]; female, dog, read-out: Elimination half life, Mean T1/2) of 3.3 h. The AUC(0-inf) [8, 14] was 800 to 3690 ng·h/mL, the AUC(0-inf) [8, 15] was 1040 to 4470 ng·h/mL and the MRT ([8]; male, dog, M (1x)) was 3.8 to 5 h. For the same compound, the MRT at 13 weeks ([8]; male, dog, M(13w)) was 3 to 4.2 h, the half-life [8, 16] was 2.1 h and the “Investigation time of the same juvenile (RID)” value (naive rats) was “decreased the investigation time”.

For CC1=NCC2(CCN(C)CC2)S1 [AF150(S), 2,8-Dimethyl-1-thia-3,8-diaza-spiro[4.5]dec-2-ene], the “APPs secretion, fold over control (agonists vs CCh)” value [1] was 2.8 fold, the NSS [3, 10] was 8.00+/−0.21 and the NSS ([3]; 1 mg/kg ip, 24 h) was 4.30+/−0.26. For the same compound, the NSS ([3]; 1 mg/kg ip, 48 h) was 2.90+/−0.3 and the “Investigation time of the same juvenile (RID)” value (naive rats) was “decreased the investigation time”.

In the case of CC[C@@H]1SC2(CCNCC2)NC1=O [AF292, (S)-2-Ethyl-1-thia-4,8-diaza-spiro[4.5]decan-3-one], the AUC(0-inf) ([2]; po, Dogs, 5 mg/kg) is reported as 4650 ng·h/mL, the Cmax ([2]; po, Dogs, 5 mg/kg) is reported as 1190 ng/mL and the MRT ([2]; po, Dogs, 5 mg/kg) is reported as 4.85 h. For the same compound, the Tmax ([2]; po, Dogs, 5 mg/kg) was 0.8 h, the half-life ([2]; po, Dogs, 5 mg/kg) was 2.04 h and the “AA release vs. CCh, M1 mAChR” value (M1 mAChR) was greater than 88%. For the same compound, the Reversal learning (aged rats) was “did not reach significance”, the “Probe trial, memory” value (aged rats; both doses (1 and 0.5 mg/kg, po)) was “tendency for partial spatial bias” and the half-life [4] was 1.23 h. For the same compound, the “Protein Binding” value [5] was “Human serum albumin (HSA) = 22%”, the “Physical or behavioral signs (Irwin test)” value ([6]; 1, 10, 30, 60, 100 mg/kg, p.o.) was “No significant physical or behavioral signs” and the half-life [7] was greater than 1.67 h. The “Elimination half life, Mean T1/2” value ([8]; F) was “Mean T1/2 (F) = 10.6 +/− 7.6 h”, the AUC(0-t) ([8]; both sexes, dog) was 616 to 2450 ng·h/mL and the Cmax ([8]; both sexes, dog) was 136 to 555 ng/mL. The Tmax ([8]; both sexes, dog) was 3 h, the half-life [8, 11] was 9 to 20 h and the “Cmax vs. the Cmax of AF267B” value ([8]; dog, in vivo) was 50–90%. The AUC(0-inf) [8, 12] was 3900 to 4840 ng·h/mL, the AUC(0-inf) [8, 13] was 1870 to 12700 ng·h/mL and the MRT ([8]; female, dog, F (1x)) was 8.7 to 18.7 h. It also gave an MRT at 13 weeks ([8]; female, dog, F(13w)) of 5.1 to 33.7 h, a half-life ([8]; female, dog, females, read-out: T1/2 (converted)) of 10.6 h and an AUC(0-inf) [8, 14] of 1140 to 10900 ng·h/mL. For the same compound, the AUC(0-inf) [8, 15] was 1610 to 4170 ng·h/mL, the MRT ([8]; male, dog, M (1x)) was 5 to 27.3 h and the MRT at 13 weeks ([8]; male, dog, M(13w)) was 5 to 7.8 h. The half-life [8, 16] was 6.3 h.
